Data published in patent publication EP0179667B1, “N6-substituted adenosines” (priority 1984, dated 1986).

What was measured:
Type in all cases: in vivo
Swiss-Webster male mice [1] = experiment: Mouse Activity and Screen Test Procedure (MAST): screen test (ST); settings: one hour postinjection
Swiss-Webster male mice [2] = experiment: Mouse Activity and Screen Test Procedure (MAST): locomotor activity in actophotometer; settings: one hour prior to testing
conscious rat = experiment: Antihypertensive evaluation (AHP3): direct monitoring of aortic blood pressure and heart rate; settings: 3 mg/kg
Excerpt: This test procedure is described in the following paragraphs. A Method for the Direct Monitoring of Aortic Blood Pressure and Heart Rate from Conscious Rats The continuous monitoring of pulsatile blood pressure (BP) from unrestrained conscious rats surgically equipped with polyethylene cannulas was accomplished by means of a computer assisted data capture scheme (CADCS). The basic elements of the methodology are the cannulation procedure and the CADCS. Cannulation Procedure: Rats were anesthetized with Telazol (1:1 tiletamine HCI and zolazepam HCI); 20-40 mg/kg IM and the descending aorta exposed via a midline incision. Cannulas fabricated from polyethylene tubing were inserted into the aorta via an undersized puncture hole below the renal arteries. […] The cannulas, consisting of a PE100 (0.86 mm ID) body and a PE50 (0.58 mm ID) tip, were attached to a trocar, inserted through the psoas muscle, and passed subcutaneously along the midline of the back and externalized between the ears. The cannulas were anchored to the posas muscle and between the scaluale (3-0 green braided suture). The midline incision was closed in two steps (muscle first, skin second) using continuous over-and over sutures (4-0 chronic). Each rat was then given penicillin 30,000 units subcutaneously (Penicillin G Procaine Sterile Suspension). The rats were fitted with a harness-spring-swivel assembly designed to protect the cannula and to provide the rat relative freedom of movement. […] While on test, each rat received a continuous slow infusion of heparinized saline solution (approximately 400 I or 40 units of heparin per 24 hour period) to prevent clot formation. […] The data were first stored on the data concentrator disk and then transferred to a magnetic tape for analysis and report generation by the main research computer. The overall scheme involved modulating the primary signal from the pressure transducer, generating the primary data set of the one-minute values for systolic, diastolic, and mean blood pressures and heart rate by the in-lab microcomputer and the storage, analysis, and report generation by the main research computer. The transducers were connected to analog signal conditioning mocules. The modules provided a regulated excitation voltage for the transducers, amplification as required to interface the microprocessors and an active low pass filter to compensate for the pressure wave form distortion produced by the flexible, fluid filled, narrow cannula. […] The microcomputer controlled the sequential acqusition of data from the modular interface units through an internal synchronous time-of-day clock/time base generator. […] The microcomputer processed each blood pressure sample as it was received to produce "running average" values for heart rate, and mean, systolic and diastolic blood pressures.

| SMILES | Screen test failure (Swiss-Webster male mice [1]; 3 mg/kg intraperitoneally) [%] | Screen test failure (Swiss-Webster male mice [1]; 10 mg/kg intraperitoneally) [%] | Screen test failure (Swiss-Webster male mice [1]; 30 mg/kg intraperitoneally) [%] | Inhibition of mouse locomotor activity (Swiss-Webster male mice [2]; 3 mg/kg intraperitoneally) [%] | Inhibition of mouse locomotor activity (Swiss-Webster male mice [2]; 10 mg/kg intraperitoneally) [%] | Inhibition of mouse locomotor activity (Swiss-Webster male mice [2]; 30 mg/kg intraperitoneally) [%] | change in MAP (Mean Arterial Pressure) (conscious rat; Hour 5, conscious rat) [%] | change in HR (Heart Rate) (conscious rat; Hour 9, conscious rat) [%] |
| --- | --- | --- | --- | --- | --- | --- | --- | --- |
| COc1ccc2c(c1)C(Nc1ncnc3c1ncn3[C@H]1O[C@H](CO)[C@@H](O)[C@H]1O)CCC2 (stereo partly drawn) [Example 9, (S)-N^6-(7-methoxy-1-tetralinyl)-adenosine] | 11 | 0 | 11 | −35 | −11 | −3 | 9 | – |
| OC[C@H]1O[C@@H](n2cnc3c(NC4CCCc5c(O)cccc54)ncnc32)[C@H](O)[C@@H]1O (some centres unmarked) [Example 16, N^6-[1-(5-hydroxy)-tetralinyl]-adenosine] | 0 | 0 | 0 | −13 | 23 | 89 | – | 0 |
